In BindingDB's records for doi:10.1016/0028-3908(88)90149-9 (Organon International, 1988) one finds Ki data, which are given here for 1 compound.

The target of this assay is Norepinephrine transporter (Rattus norvegicus, UniProt Q9JIA2).

Structures are written as SMILES.

For orientation: Ki means a measure of affinity in units of concentration, obtained from inhibition or displacement. For `CN1Cc2c(N)cccc2[C@H](c2ccccc2)C1` [(+/-)-2-Methyl-4-phenyl-1,2,3,4-tetrahydro-isoquinolin-8-ylamine], the affinity, expressed as Ki, was 15.9 nM.
